In patent US6818407B2, “Anti-endotoxic antimicrobial cationic peptides and methods of use therfor” (priority 1998, dated 2004):
Marks after values point to notes of the source that are not given here.

Tests used:
[1] = tested on: RAW 264.7; assay: Inhibition of LPS-induced TNF production by RAW 264.7 macrophage cell line; format: cell-based, murine; conditions: E. coli LPS 100 ng/ml, peptide 20 μg/ml, 6 hr; FIG. 2
Procedure: (§1) LPS (endotoxin) binding was examined by the dansyl polymyxin binding assay. All peptides bound to LPS (FIG. 1). The anti-endotoxic activity of the peptides was tested in the murine cell line RAW 264.7 which was obtained from the ATCC (ATCC #TIB-71), (Rockville, Md.). TNF induction experiments with LPS were performed as described by Kelly et al (Infect. Immun., 59:4491-6, 1991). Briefly, Dulbecco's modified Eagle medium was aspirated from RAW 264.7 cells grown overnight in 24-well tissue culture plates after seeding with 10^6 cells per ml per well and replaced with fresh medium. LPS at a final concentration of 100 ng/ml, was incubated with the cells for 6 hr. at 37° C. in 5% CO2 prior to assaying for cytokine production. At the same time as LPS addition, cationic peptides were added at a final concentration of 20 μg/ml. All assays were performed three times with similar results.
(§2) TNF was measured in cell culture supernatants and mouse serum on the basis of cytoxicity for L929 fibroblast cells. […] TNF activity was expressed in units as the reciprocal of the dilution of TNF that caused 50% cytotoxicity of L929 cells, as computed using the ELISA+program (Meddata Inc, New York, N.Y.). For the current study, one unit of TNF corresponded to 62.5 pg/ml of recombinant murine TNF (Genzyme Corp.) IL-6 production was measured by ELISA with specific antibody.

[2] = tested on: S. epidermis; assay: MIC, broth microdilution assay in polypropylene microtiter trays; format: cell-based; conditions: average of three separate experiments
Method in brief: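 Read-out: OD. MIC = lowest peptide conc. giving no OD change over the defined time.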

[3] = Lethal endotoxemia in galactosamine-sensitized mice; format: in vivo, CD-1 mice; conditions: peptide 200 μg intraperitoneal within 10 min of 10 μg LPS; 24 hours post injection; 5 mice per group; no peptide 100
Procedure: To confirm this in vivo, endotoxic shock was induced by intraperitoneal injection of 10 μg of E.coli 0111:B4 LPS in phosphate-buffered saline (PBS; pH 7.2) into galactosamine-sensitized 8- to 10- week old female CD-1 mice (5 per group). In experiments involving peptides, 200 μg in 100 μl of sterile water was injected at separate intraperitoneal sites within 10 min of LPS injection. Survival was monitored at 24 hours post injection.

[4] = tested on: P. aeruginosa gyrase mutant (Nal A, H374); format: cell-based
Procedure: The biological activity of the peptides can be determined by standard methods known to those of skill in the art, such as Aminimal inhibitory concentration (MIC)≅ assay described in the present examples, whereby the lowest concentration at which no change in OD is observed for a given period of time is recorded as MIC. Alternatively, Afractional inhibitory concentration (FIC)≅ is also useful for determination of synergy between the peptides of the invention, or the peptides in combination with known antibiotics. FICs are performed by checkerboard titrations of peptides in one dimension of a microtiter plate, and of antibiotics in the other dimension, for example. The FIC is calculated by looking at the impact of one antibiotic on the MIC of the other and vice versa. […] Preferably, an FIC of less than 0.5 is obtained for synergism. As used herein, FIC can be determined as follows: [formula]
To test whether the peptides of the invention synergize with various antibiotics, the following method was employed. Fractional Inhibitory Concentration (FIC) was used to determine synergy of peptides combined with antibiotics (e.g., carbenicillin/ciprofloxacin) against Pseudomonas aeruginosa. The following methodology was followed:
(1) Determination of MIC of cationic peptides (MIC A):
100 μl Mueller Hinton broth (MHB) was added per well
12.5 μl of 10× test concentration peptide was added per well to get final peptide concentration of e.g., 128, 64, 32, . . . 0.025 μg/ml from row 1 to 11;
10 μl of 10^−4 dilution of overnight bacterial culture was added per well.
(2) Determination of MIC of Carbenicillin/Ciprofloxacin (MIC B):
100 μl MHB was added per well;
100 μl of 2× test concentration of antibiotic was added in the first well of the row, and doubling dilutions performed across the plate from column 1 to 11;
(3) Determination of MIC of antibiotics (B) when combined with peptides at concentration A:
100 μl Carbenicillin (512 μg/ml) or Ciprofloxacin (8 μg/ml) was added in each well of column 1; doubling dilutions were performed across the plate;
100 μl of the peptide was added in all wells of row 1, mixed, and 100 μl withdrawn and added to row 2, etc., creating a checkerboard titration.
10 μl of 10^−4 dilution of overnight culture was added per well;
plates were incubated at 37EC for 18-24 hours. Combination MIC values A and B were taken as the lowest concentration of drug that reduced bacterial growth by more than 50% in any given column.
(4) FIC index=FICA+FICB=(A)/MIC A+(B)/MIC B. An FIC index of approximately 0.5 or less indicates synergy; 1.0 reflects additivity; and >1.0 indicates antagonism.

[5] = tested on: RAW 264.7; assay: Suppression of LPS-induced IL-6 production by RAW 264.7 macrophage cell line; format: cell-based, murine; conditions: LPS 100 ng/ml, peptide 20 μg/ml, 6 hr, ELISA, FIG. 3
Procedure: as §1, §2

[6] = tested on: P. aeruginosa efflux mutant (Nal B, H744); assay: microbe, parasite or virus in culture; format: cell-based
[7] = tested on: Pseudomonas aeruginosa PAO; assay: Chronic Pseudomonas aeruginosa lung infection in rats, aerosol treatment; format: in vivo; conditions: lungs, quantitative culture; aerosol 10 ml of 5 mg/ml once daily for three days; untreated control 1.2 × 10^6
Procedure: Fifteen animals were utilized in these experiments (5 animals in each of three groups). All animals were inoculated intratracheal with 10^4 Pseudomonas aeruginosa PAO in agar beads. Three days following inoculation, rats were exposed to aerosol preparations from and Aero-Tech II nebulizer (CIS-US, Bedford, Mass.). The nebulizer was operated at 45 psi, with a flow rate of 10 L/min and contained 10 ml of the preparation to be aerosolized. The 10 ml volume was dispensed in 25-30 minutes. Animals were treated once daily for three days; control animals received daily exposure to 10 mls of 10 mM sodium citrate (pH 7.0); one treatment group received daily exposure to 10 mls of 10 mM sodium citrate (pH 7.0) containing 5 mg/ml of CM3; one treatment group received daily exposure to 10 mls of 10 mM sodium citrate (pH 7.0) containing 5 mg/ml of Cpα2. Animals were sacrificed on day 3, at one hour following the last exposure. The lungs of the treatment and control animals were removed for quantitative culture.

Row | SMILES | Inhibition of TNF production (neutralization of endotoxin) [1] | MIC S. epidermis [2] [µg/mL] | Mortality (%) [3] [%] | (B) MIC of Nal when combined with peptide ([4]; nalidixic acid with peptide at concentration (A), Nal A, unit from method) [µg/mL] | FIC index ([4]; peptide + nalidixic acid, Nal A) | MIC A MIC of Peptides ([4]; peptide alone, P. aeruginosa gyrase mutant Nal A) [µg/mL] | (A) Peptide doses together with Nal ([4]; peptide concentration in combination with nalidixic acid, Nal A) [µg/mL] | Suppression of IL-6 production [5] | Suppression of IL-6 production ([5]; listed as Cpα2) | (B) MIC of Nal when combined with peptide ([6]; nalidixic acid with peptide at concentration (A), efflux mutant Nal B, H744, unit from method) [µg/mL] | FIC index ([6]; peptide + nalidixic acid, efflux mutant Nal B, H744) | MIC A MIC of Peptides ([6]; peptide alone, P. aeruginosa efflux mutant Nal B, H744 (Table 6)) [µg/mL] | (A) Peptide doses together with Nal ([6]; peptide concentration in combination with nalidixic acid, efflux mutant Nal B, H744) [µg/mL] | Mean Colony Forming Units +/− S.D. [7]
1 | CC[C@H](C)[C@H](NC(=O)CNC(=O)[C@@H](NC(=O)[C@H](CCCCN)NC(=O)[C@H](CCCCN)NC(=O)[C@H](Cc1ccccc1)NC(=O)[C@H](CC(C)C)NC(=O)[C@H](CCCCN)NC(=O)[C@H](Cc1c[nH]c2ccccc12)NC(=O)[C@@H](N)CCCCN)[C@@H](C)CC)C(=O)NCC(=O)N[C@@H](C)C(=O)N[C@H](C(=O)N[C@@H](CC(C)C)C(=O)N[C@@H](CCCCN)C(=O)N[C@H](C(=O)N[C@@H](CC(C)C)C(=O)N[C@@H](CCCCN)C(=O)N[C@H](C(=O)N[C@@H](CC(C)C)C(=O)N[C@H](C(=O)N[C@H](C(=O)NCC(=O)N[C@@H](CC(C)C)C(=O)N1CCC[C@H]1C(=O)N[C@@H](C)C(=O)N[C@@H](CC(C)C)C(=O)N[C@@H](CCCCN)C(=O)N[C@@H](CC(C)C)C(=O)N[C@H](C(=O)N[C@@H](CC(C)C)C(=O)N[C@@H](CCCCN)C(=O)O)[C@@H](C)O)[C@@H](C)O)[C@@H](C)O)C(C)C)C(C)C)C(C)C [CM4] | clearly better than others | 4 | 80 |  |  |  |  |  |  |  |  |  |  | 
2 | CC[C@H](C)[C@H](NC(=O)CNC(=O)[C@@H](NC(=O)[C@H](CCCCN)NC(=O)[C@H](CCCCN)NC(=O)[C@@H](NC(=O)[C@H](Cc1ccccc1)NC(=O)[C@H](CCCCN)NC(=O)[C@H](CCCCN)NC(=O)[C@H](Cc1c[nH]c2ccccc12)NC(=O)[C@@H](N)CCCCN)[C@@H](C)CC)[C@@H](C)CC)C(=O)NCC(=O)N[C@@H](C)C(=O)N[C@H](C(=O)N[C@@H](CC(C)C)C(=O)N[C@@H](CCCCN)C(=O)N[C@H](C(=O)N[C@@H](CC(C)C)C(=O)N[C@H](C(=O)N[C@H](C(=O)NCC(=O)N[C@@H](CC(C)C)C(=O)N1CCC[C@H]1C(=O)N[C@@H](C)C(=O)N[C@@H](CC(C)C)C(=O)N[C@@H](CCCCN)C(=O)N[C@@H](CC(C)C)C(=O)N[C@H](C(=O)N[C@@H](CCCCN)C(=O)N[C@@H](CCCCN)C(=O)O)[C@@H](C)O)[C@@H](C)O)[C@@H](C)O)C(C)C)C(C)C [CPα2] | clearly better than others |  |  | 800 | 0.50 | 4 | 1 | clearly superior in their ability to suppress IL-6 production | superior in their ability to suppress IL-6 production | 800 | 0.63 | 4 | 0.5 | 6.8 × 10^4 +/− 3.6 × 10^4* CFU
3 | CC[C@H](C)[C@H](NC(=O)CNC(=O)[C@@H](NC(=O)[C@H](CCCCN)NC(=O)[C@H](CCCCN)NC(=O)[C@H](Cc1ccccc1)NC(=O)[C@H](CC(C)C)NC(=O)[C@H](CCCCN)NC(=O)[C@H](Cc1c[nH]c2ccccc12)NC(=O)[C@H](CC(C)C)NC(=O)[C@@H](N)CCCCN)[C@@H](C)CC)C(=O)NCC(=O)N[C@@H](C)C(=O)N[C@H](C(=O)N[C@@H](CC(C)C)C(=O)N[C@@H](CCCCN)C(=O)N[C@H](C(=O)N[C@@H](CC(C)C)C(=O)N[C@@H](CCCCN)C(=O)N[C@H](C(=O)N[C@@H](CC(C)C)C(=O)N[C@H](C(=O)N[C@H](C(=O)NCC(=O)N[C@@H](CC(C)C)C(=O)N1CCC[C@H]1C(=O)N[C@@H](C)C(=O)N[C@@H](CC(C)C)C(=O)N[C@@H](CCCCN)C(=O)N[C@@H](CC(C)C)C(=O)N[C@H](C(=O)N[C@@H](CC(C)C)C(=O)N[C@@H](CCCCN)C(=O)O)[C@@H](C)O)[C@@H](C)O)[C@@H](C)O)C(C)C)C(C)C)C(C)C [CM7] |  | 4 | 100 |  |  |  |  | clearly superior in their ability to suppress IL-6 production |  |  |  |  |  | 
